Results: US10351594B2, “Process for preparing compounds having triple activities of thrombolysis, antithrombosis, and radical scavenging” (Shanghai Lumosa Therapeutics Co., Ltd., priority 2013, dated 2019)
“Also recorded” adds a separate entry of the source. Marks after values point to notes of the source that are not given here.

Experiments:
[1] = Superoxide anionic radical scavenging activity (xanthine/xanthine oxidase, DMPO); format: biochemical; details: n = 6
Description: […] xanthine was dissolved in 1 mL of pure water to obtain 0.5 M xanthine solution (milk white color, largely insoluble). Commercially available raw solution of xanthine oxidase was diluted 10 folds to obtain solution of xanthine oxidase. Saturated DETAPAC solution was diluted 20 folds to obtain 0.9 mM solution. 11.316 mg DMPO was dissolved in 1 mL of pure water to obtain 0.1 M DMPO solution.
5 μL DMPO solution+5 μL DETAPAC solution+5 μL xanthine solution+5 μL xanthine oxidase solution+5 μL compounds 5Aa-p solution
The first peak height of superoxide anion signal of 5 μL DMPO solution+5 μL DETAPAC solution+5 μL xanthine solution+5 μL xanthine oxidase solution+5 μL water was measured and repeated for 6 times. This peak height defined as the known peak height of superoxide anion signal. The first peak height of superoxide anion signal of 5 μL DMPO solution+5 μL DETAPAC solution+5 μL xanthine solution+5 μL xanthine oxidase solution+5 μL solution of one of compounds 5Aa-p was measured and repeated for 6 times. This peak height defined as the residual peak height of the superoxide anion signal scavenged by one of the compounds 5Aa-p. Scavenging ratio=(known peak height of superoxide anion signal−residual peak height of superoxide anion signal of compounds 5Aa-p)/known peak height of superoxide anion signal

[2] = Hydroxyl free radical scavenging activity (DMPO signal peak height); format: biochemical; details: n = 6; read-out: EC50 of scavenging •OH
Description: 11.316 mg DMPO ([…], Sigma) was dissolved in 1 mL of pure water to obtain 0.1 M DMPO solution. […] FeSO4.7H2O was dissolved in 1 mL of pure water to obtain 10 mM solution. 30% medical H2O2 was diluted to 0.2%.
The first peak height of the OH signal of 2.5 μL FeSO4.7H2O solution+2.5 μL DMPO solution+5 μL H2O2 solution+5 μL water was measured and repeated for 6 times. This peak height defined as the known peak height of OH signal. The first peak height of the OH signal of 2.5 μL FeSO4.7H2O solution+2.5 μL DMPO solution+5 μL H2O2 solution+5 μL solution of one of the compounds 5Aa-p was measured and repeated for 6 times. This peak height defined as the residual peak height of the OH signal scavenged by one of the compounds 5Aa-p. Scavenging ratio=(known peak height of OH signal−residual peak height of OH signal of compounds 5Aa-p)/known peak height of OH signal

stroke rats = test: Therapeutic effect in stroke rats (microthrombus injected into the brain, treated at once): Zealonga score and TTC infarction volume; format: in vivo, SD male rats; details: for Neural function scores: Zealonga method, 24 hours after awake, n = 9; for Percentage of infarction volume: cerebral infarction, TTC, n = 7
Description: SD male rats (280-300 g) were randomly divided to UK positive control group at a dose of 20000 IU/kg, blank control group with normal saline solution, compound control group with PAK at a dose of 5 μmol/kg, and compound 5Ak group at a dose of 1 μmol/kg (high), 0.1 μmol/kg (medium), and 0.01 μmol/kg (low). A 10% chloral hydrate solution (400 mg/kg) was injected intraperitoneally into rats for anesthesia. […] The 10 μl blood drawn was placed in a 1 mL EP vial and kept at RT for 30 min to allow the coagulation of blood and then transferred into a −20° C. refrigerator for 1 hour to allow the formation of solid coagulation. 1 hour later, the blood clots were taken out, 1 mL normal saline was added therein, and then the blood clots were broken into relatively uniform microthrombus by a steel spatula. The microthrombus suspension was then transferred into a 1 mL injector for use. […] The common jugular vein was separated, and then injected with UK at the dose of 20000 IU/kg, normal saline solution, or compound 5Ak at the dose of 1 μmol/kg. The vein was ligated. 3 drops of penicillin was dropped on the wound. The wound was sewed, and animals were waited for awake.
24 hours after the rats were awake, the degree of damage in neural function was evaluated by the Zealonga method. […] The evaluation results were statistically analyzed and subjected to t-test.
After the rats were awake for 24 hours and assessed for their degree of damage in neural function by Zealonga method, they were anesthetized with urethane followed by immediate decapitation and removal of the brain. Brain tissues were kept in a −20° C. refrigerator for 2 hours, and coronal sections of about 2 mm were successively sliced from the prefrontal end for a total of 5 sections and then placed into a 2% TTC solution to incubate without light at 37° C. for 30 min. The color change in brain sections was observed: normal brain tissues were stained red by TTC, while ischemic brain tissues appeared in white. Photographs were taken by using a digital camera and processed with image statistics software, and the volume of infarction in brain tissues and the area of normal brain tissues in the coronal sections were calculated. The ratio of the cerebral infarction volume of each group was statistically calculated and subject to t-test.

Row | Molecule | EC50 [1] | EC50 [2] | further results
1 | C[C@H](NC(=O)[C@@H]1CCCN1)C(=O)N[C@@H](Cc1ccccc1)C(=O)NCCCC[C@H](NC(=O)[C@@H]1Cc2cc(O)c(O)cc2C(C)(C)N1)C(=O)O [Compound 5Af, 3S-6,7-dihydroxy-1,1-dimethyl-1,2,3,4-tetrahydro-isoquinoline-3-acyl-Lys(Pro-Ala-Phe)] | 485 ± 31 µM | 544 ± 43 µM | 
2 | C[C@H](NC(=O)[C@@H]1CCCN1)C(=O)N[C@@H](CCCCN)C(=O)NCCCC[C@H](NC(=O)[C@@H]1Cc2cc(O)c(O)cc2C(C)(C)N1)C(=O)O [Compound 5Ak, 3S-6,7-dihydroxy-1,1-dimethyl-1,2,3,4-tetrahydro-isoquinoline-3-acyl-Lys(Pro-Ala-Lys)] | 363 ± 94 µM | 422 ± 82 µM | Therapeutic effect in stroke rats, result in words (stroke rats; 5Ak 1, 0.1, 0.01 μmol/kg): effectively prevent the brain ischemia rats from occurrence of dyskinesia and cerebral infarction; also recorded: dose dependent; Neural function scores (stroke rats; 5Ak 0.01 μmol/kg): 2.30 ± 0.95^c; Neural function scores (stroke rats; 5Ak 0.1 μmol/kg): 1.40 ± 1.07^b; Neural function scores (stroke rats; 5Ak 1 μmol/kg): 1.10 ± 0.74^a; Percentage of infarction volume (stroke rats; 5Ak 0.01 μmol/kg): 18.05 ± 5.77^c %; Percentage of infarction volume (stroke rats; 5Ak 0.1 μmol/kg): 9.88 ± 2.52^b %; Percentage of infarction volume (stroke rats; 5Ak 1 μmol/kg): 3.44 ± 1.99^a %
3 | C[C@H](NC(=O)[C@@H]1CCCN1)C(=O)N1CCC[C@H]1C(=O)NCCCC[C@H](NC(=O)[C@@H]1Cc2cc(O)c(O)cc2C(C)(C)N1)C(=O)O [Compound 5Ae, 3S-6,7-dihydroxy-1,1-dimethyl-1,2,3,4-tetrahydro-isoquinoline-3-acyl-Lys(Pro-Ala-Pro)] | 481 ± 45 µM | 466 ± 47 µM | 
4 | C[C@H](NC(=O)[C@@H]1CCCN1)C(=O)N[C@@H](CC(=O)O)C(=O)NCCCC[C@H](NC(=O)[C@@H]1Cc2cc(O)c(O)cc2C(C)(C)N1)C(=O)O [Compound 5Ao, 3S-6,7-dihydroxy-1,1-dimethyl-1,2,3,4-tetrahydro-isoquinoline-3-acyl-Lys(Pro-Ala-Asp)] | 435 ± 65 µM | 396 ± 48 µM | 
5 | CC[C@H](C)[C@H](NC(=O)[C@H](C)NC(=O)[C@@H]1CCCN1)C(=O)NCCCC[C@H](NC(=O)[C@@H]1Cc2cc(O)c(O)cc2C(C)(C)N1)C(=O)O [Compound 5Ai, 3S-6,7-dihydroxy-1,1-dimethyl-1,2,3,4-tetrahydro-isoquinoline-3-acyl-Lys(Pro-Ala-Ile)] | 452 ± 64 µM | 495 ± 61 µM | 
6 | 3S-6,7-dihydroxy-1,1-dimethyl-1,2,3,4-tetrahydro-isoquinoline-3-acyl-Lys(Pro-Ala-Ala) [Compound 5Aa] | 477 ± 56 µM | 459 ± 66 µM | 
7 | C[C@H](NC(=O)[C@@H]1CCCN1)C(=O)N[C@@H](CC(N)=O)C(=O)NCCCC[C@H](NC(=O)[C@@H]1Cc2cc(O)c(O)cc2C(C)(C)N1)C(=O)O [Compound 5An, 3S-6,7-dihydroxy-1,1-dimethyl-1,2,3,4-tetrahydro-isoquinoline-3-acyl-Lys(Pro-Ala-Asn)] | 383 ± 94 µM | 572 ± 72 µM | 
8 | C[C@H](NC(=O)[C@@H]1CCCN1)C(=O)N[C@@H](CCC(=O)O)C(=O)NCCCC[C@H](NC(=O)[C@@H]1Cc2cc(O)c(O)cc2C(C)(C)N1)C(=O)O [Compound 5Ap, 3S-6,7-dihydroxy-1,1-dimethyl-1,2,3,4-tetrahydro-isoquinoline-3-acyl-Lys(Pro-Ala-Glu)] | 420 ± 73 µM | 400 ± 51 µM | 
9 | C[C@H](NC(=O)[C@@H]1CCCN1)C(=O)N[C@@H](Cc1c[nH]c2ccccc12)C(=O)NCCCC[C@H](NC(=O)[C@@H]1Cc2cc(O)c(O)cc2C(C)(C)N1)C(=O)O [Compound 5Ac, 3S-6,7-dihydroxy-1,1-dimethyl-1,2,3,4-tetrahydro-isoquinoline-3-acyl-Lys(Pro-Ala-Trp)] | 366 ± 71 µM | 378 ± 85 µM | 
10 | C[C@H](NC(=O)[C@@H]1CCCN1)C(=O)N[C@@H](CO)C(=O)NCCCC[C@H](NC(=O)[C@@H]1Cc2cc(O)c(O)cc2C(C)(C)N1)C(=O)O [Compound 5Ah, 3S-6,7-dihydroxy-1,1-dimethyl-1,2,3,4-tetrahydro-isoquinoline-3-acyl-Lys(Pro-Ala-Ser)] | 401 ± 72 µM | 413 ± 73 µM | 
11 | CC(C)C[C@H](NC(=O)[C@H](C)NC(=O)[C@@H]1CCCN1)C(=O)NCCCC[C@H](NC(=O)[C@@H]1Cc2cc(O)c(O)cc2C(C)(C)N1)C(=O)O [Compound 5Al, 3S-6,7-dihydroxy-1,1-dimethyl-1,2,3,4-tetrahydro-isoquinoline-3-acyl-Lys(Pro-Ala-Leu)] | 414 ± 97 µM | 489 ± 32 µM | 
12 | C[C@H](NC(=O)[C@@H]1CCCN1)C(=O)N[C@H](C(=O)NCCCC[C@H](NC(=O)[C@@H]1Cc2cc(O)c(O)cc2C(C)(C)N1)C(=O)O)[C@@H](C)O [Compound 5Aj, 3S-6,7-dihydroxy-1,1-dimethyl-1,2,3,4-tetrahydro-isoquinoline-3-acyl-Lys(Pro-Ala-Thr)] | 417 ± 95 µM | 416 ± 28 µM | 
13 | 3S-6,7-dihydroxy-1,1-dimethyl-1,2,3,4-tetrahydro-isoquinoline-3-acyl-Lys(Pro-Ala-Val) [Compound 5Ab] | 471 ± 34 µM | 471 ± 71 µM | 
14 | 3S-6,7-dihydroxy-1,1-dimethyl-1,2,3,4-tetrahydro-isoquinoline-3-acyl-Lys(Pro-Ala-Gly) [Compound 5Ag] | 467 ± 94 µM | 422 ± 61 µM | 
15 | C[C@H](NC(=O)[C@@H]1CCCN1)C(=O)N[C@@H](Cc1ccc(O)cc1)C(=O)NCCCC[C@H](NC(=O)[C@@H]1Cc2cc(O)c(O)cc2C(C)(C)N1)C(=O)O [Compound 5Ad, 3S-6,7-dihydroxy-1,1-dimethyl-1,2,3,4-tetrahydro-isoquinoline-3-acyl-Lys(Pro-Ala-Tyr)] | 354 ± 71 µM | 369 ± 32 µM | 
16 | C[C@H](NC(=O)[C@@H]1CCCN1)C(=O)N[C@@H](CCC(N)=O)C(=O)NCCCC[C@H](NC(=O)[C@@H]1Cc2cc(O)c(O)cc2C(C)(C)N1)C(=O)O [Compound 5Am, 3S-6,7-dihydroxy-1,1-dimethyl-1,2,3,4-tetrahydro-isoquinoline-3-acyl-Lys(Pro-Ala-Gln)] | 371 ± 45 µM | 466 ± 77 µM | 
